{"source": "patent US20060263802A1", "about": "(priority 2003, published 2006)", "assay_type_in_all_cases": "binding", "key": {"[1]": {"test_system": "human monoclonal antibody CRJB"}, "[2]": {"test_system": "human monoclonal antibody CR57"}, "[3]": {"test_system": "human monoclonal antibody CRJA"}, "[4]": {"test_system": "human monoclonal antibody CRJB", "remark": "listed apart in the source"}, "[5]": {"test_system": "human monoclonal antibody CR57", "remark": "listed apart in the source"}, "[6]": {"test_system": "human monoclonal antibody CRJA", "remark": "listed apart in the source"}}}
{"sequence": "GPWSPIDIHHLSCPN", "values": [{"measurement": "Binding of CRJB to linear peptide (PEPSCAN-ELISA signal)", "setting": "[1]", "result": 114}, {"measurement": "Binding of CR57 to linear peptide (PEPSCAN-ELISA signal)", "setting": "[2]", "result": 68}, {"measurement": "Binding of CRJA to linear peptide (PEPSCAN-ELISA signal)", "setting": "[3]", "result": 72}, {"measurement": "Binding of CRJB (10 μg/ml) to looped/cyclic peptide (PEPSCAN-ELISA signal)", "setting": "[4]", "result": 78}, {"measurement": "Binding of CR57 (10 μg/ml) to looped/cyclic peptide (PEPSCAN-ELISA signal)", "setting": "[5]", "result": 78}, {"measurement": "Binding of CRJA (10 μg/ml) to looped/cyclic peptide (PEPSCAN-ELISA signal)", "setting": "[6]", "result": 97}]}
{"sequence": "HPLADPSTVFKDGDE", "values": [{"measurement": "Binding of human monoclonal antibody CRJB to linear peptide (PEPSCAN-ELISA signal)", "setting": "[1]", "result": 141}, {"measurement": "Binding of human monoclonal antibody CR57 to linear peptide (PEPSCAN-ELISA signal)", "setting": "[2]", "result": 74}, {"measurement": "Binding of human monoclonal antibody CRJA to linear peptide (PEPSCAN-ELISA signal)", "setting": "[3]", "result": 100}, {"measurement": "Binding of CRJB to looped/cyclic peptide (PEPSCAN-ELISA signal)", "setting": "[4]", "result": 93}, {"measurement": "Binding of CR57 to looped/cyclic peptide (PEPSCAN-ELISA signal)", "setting": "[5]", "result": 111}, {"measurement": "Binding of CRJA to looped/cyclic peptide (PEPSCAN-ELISA signal)", "setting": "[6]", "result": 115}]}
{"sequence": "TNSRGKRASKGSETC", "values": [{"measurement": "Binding of CRJB to linear peptide (PEPSCAN-ELISA signal)", "setting": "[1]", "result": 108}, {"measurement": "Binding of CR57 to linear peptide (PEPSCAN-ELISA signal)", "setting": "[2]", "result": 68}, {"measurement": "Binding of CRJA to linear peptide (PEPSCAN-ELISA signal)", "setting": "[3]", "result": 89}, {"measurement": "Binding of CRJB (10 μg/ml) to looped/cyclic peptide (PEPSCAN-ELISA signal)", "setting": "[4]", "result": 104}, {"measurement": "Binding of CR57 (10 μg/ml) to looped/cyclic peptide (PEPSCAN-ELISA signal)", "setting": "[5]", "result": 107}, {"measurement": "Binding of CRJA (10 μg/ml) to looped/cyclic peptide (PEPSCAN-ELISA signal)", "setting": "[6]", "result": 104}]}
{"sequence": "TYCSTNHDYTIWMPE", "values": [{"measurement": "Binding of CRJB to linear peptide (PEPSCAN-ELISA signal)", "setting": "[1]", "result": 107}, {"measurement": "Binding of CR57 to linear peptide (PEPSCAN-ELISA signal)", "setting": "[2]", "result": 96}, {"measurement": "Binding of CRJA to linear peptide (PEPSCAN-ELISA signal)", "setting": "[3]", "result": 87}, {"measurement": "Binding of CRJB (10 μg/ml) to looped/cyclic peptide (PEPSCAN-ELISA signal)", "setting": "[4]", "result": 93}, {"measurement": "Binding of CR57 (10 μg/ml) to looped/cyclic peptide (PEPSCAN-ELISA signal)", "setting": "[5]", "result": 104}, {"measurement": "Binding of CRJA (10 μg/ml) to looped/cyclic peptide (PEPSCAN-ELISA signal)", "setting": "[6]", "result": 97}]}
{"sequence": "SLKGACKLKLCGVLG", "values": [{"measurement": "Binding of CRJB to linear peptide (PEPSCAN-ELISA signal)", "setting": "[1]", "result": 111}, {"measurement": "Binding of CR57 to linear peptide (PEPSCAN-ELISA signal)", "setting": "[2]", "result": 200}, {"measurement": "binding of antibody CR57 to linear peptide (PEPSCAN OD)", "setting": "[2]", "result": "bound"}, {"measurement": "Binding of CRJA to linear peptide (PEPSCAN-ELISA signal)", "setting": "[3]", "result": 99}, {"measurement": "Binding of CRJB (10 μg/ml) to looped/cyclic peptide (PEPSCAN-ELISA)", "setting": "[4]", "result": 79}, {"measurement": "Binding of CR57 (10 μg/ml) to looped/cyclic peptide (PEPSCAN-ELISA)", "setting": "[5]", "result": 129}, {"measurement": "Binding of CRJA (10 μg/ml) to looped/cyclic peptide (PEPSCAN-ELISA)", "setting": "[6]", "result": 106}]}
{"sequence": "VRKREECLDALESIM", "values": [{"measurement": "Binding of CRJB to linear peptide (PEPSCAN-ELISA signal)", "setting": "[1]", "result": 181}, {"measurement": "Binding of CR57 to linear peptide (PEPSCAN-ELISA signal)", "setting": "[2]", "result": 58}, {"measurement": "Binding of CRJA to linear peptide (PEPSCAN-ELISA signal)", "setting": "[3]", "result": 111}, {"measurement": "Binding of CRJB (10 μg/ml) to looped/cyclic peptide (PEPSCAN-ELISA)", "setting": "[4]", "result": 66}, {"measurement": "Binding of CR57 (10 μg/ml) to looped/cyclic peptide (PEPSCAN-ELISA)", "setting": "[5]", "result": 105}, {"measurement": "Binding of CRJA (10 μg/ml) to looped/cyclic peptide (PEPSCAN-ELISA)", "setting": "[6]", "result": 101}]}
{"sequence": "SRGKRASKGSETCGF", "values": [{"measurement": "Binding of CRJB to linear peptide (PEPSCAN-ELISA signal)", "setting": "[1]", "result": 93}, {"measurement": "Binding of CR57 to linear peptide (PEPSCAN-ELISA signal)", "setting": "[2]", "result": 64}, {"measurement": "Binding of CRJA to linear peptide (PEPSCAN-ELISA signal)", "setting": "[3]", "result": 70}, {"measurement": "Binding of CRJB (10 μg/ml) to looped/cyclic peptide (PEPSCAN-ELISA signal)", "setting": "[4]", "result": 86}, {"measurement": "Binding of CR57 (10 μg/ml) to looped/cyclic peptide (PEPSCAN-ELISA signal)", "setting": "[5]", "result": 96}, {"measurement": "Binding of CRJA (10 μg/ml) to looped/cyclic peptide (PEPSCAN-ELISA signal)", "setting": "[6]", "result": 82}]}
{"sequence": "AVSSTYCSTNHDYTI", "values": [{"measurement": "Binding of CRJB to linear peptide (PEPSCAN-ELISA signal)", "setting": "[1]", "result": 105}, {"measurement": "Binding of CR57 to linear peptide (PEPSCAN-ELISA signal)", "setting": "[2]", "result": 71}, {"measurement": "Binding of CRJA to linear peptide (PEPSCAN-ELISA signal)", "setting": "[3]", "result": 102}, {"measurement": "Binding of CRJB (10 μg/ml) to looped/cyclic peptide (PEPSCAN-ELISA signal)", "setting": "[4]", "result": 79}, {"measurement": "Binding of CR57 (10 μg/ml) to looped/cyclic peptide (PEPSCAN-ELISA signal)", "setting": "[5]", "result": 129}, {"measurement": "Binding of CRJA (10 μg/ml) to looped/cyclic peptide (PEPSCAN-ELISA signal)", "setting": "[6]", "result": 91}]}
{"sequence": "SVRTWNEILPSKGCL", "values": [{"measurement": "Binding of CRJB to linear peptide (PEPSCAN-ELISA signal)", "setting": "[1]", "result": 138}, {"measurement": "Binding of CR57 to linear peptide (PEPSCAN-ELISA signal)", "setting": "[2]", "result": 106}, {"measurement": "Binding of CRJA to linear peptide (PEPSCAN-ELISA signal)", "setting": "[3]", "result": 123}, {"measurement": "Binding of CRJB (10 μg/ml) to looped/cyclic peptide (PEPSCAN-ELISA)", "setting": "[4]", "result": 147}, {"measurement": "Binding of CR57 (10 μg/ml) to looped/cyclic peptide (PEPSCAN-ELISA)", "setting": "[5]", "result": 151}, {"measurement": "Binding of CRJA (10 μg/ml) to looped/cyclic peptide (PEPSCAN-ELISA)", "setting": "[6]", "result": 165}]}
{"sequence": "VGYILAIKMNGFTCT", "values": [{"measurement": "Binding of CRJB to linear peptide (PEPSCAN-ELISA signal)", "setting": "[1]", "result": 93}, {"measurement": "Binding of CR57 to linear peptide (PEPSCAN-ELISA signal)", "setting": "[2]", "result": 77}, {"measurement": "Binding of CRJA to linear peptide (PEPSCAN-ELISA signal)", "setting": "[3]", "result": 70}, {"measurement": "Binding of CRJB (10 μg/ml) to looped/cyclic peptide (PEPSCAN-ELISA signal)", "setting": "[4]", "result": 86}, {"measurement": "Binding of CR57 (10 μg/ml) to looped/cyclic peptide (PEPSCAN-ELISA signal)", "setting": "[5]", "result": 97}, {"measurement": "Binding of CRJA (10 μg/ml) to looped/cyclic peptide (PEPSCAN-ELISA signal)", "setting": "[6]", "result": 105}]}
{"sequence": "PLADPSTVFKDGDEA", "values": [{"measurement": "Binding of human monoclonal antibody CRJB to linear peptide (PEPSCAN-ELISA signal)", "setting": "[1]", "result": 125}, {"measurement": "Binding of human monoclonal antibody CR57 to linear peptide (PEPSCAN-ELISA signal)", "setting": "[2]", "result": 99}, {"measurement": "Binding of human monoclonal antibody CRJA to linear peptide (PEPSCAN-ELISA signal)", "setting": "[3]", "result": 84}, {"measurement": "Binding of CRJB to looped/cyclic peptide (PEPSCAN-ELISA signal)", "setting": "[4]", "result": 97}, {"measurement": "Binding of CR57 to looped/cyclic peptide (PEPSCAN-ELISA signal)", "setting": "[5]", "result": 148}, {"measurement": "Binding of CRJA to looped/cyclic peptide (PEPSCAN-ELISA signal)", "setting": "[6]", "result": 97}]}
{"sequence": "GGRCHPHVNGVFFNG", "values": [{"measurement": "Binding of CRJB to linear peptide (PEPSCAN-ELISA signal)", "setting": "[1]", "result": 119}, {"measurement": "Binding of CR57 to linear peptide (PEPSCAN-ELISA signal)", "setting": "[2]", "result": 86}, {"measurement": "Binding of CRJA to linear peptide (PEPSCAN-ELISA signal)", "setting": "[3]", "result": 110}, {"measurement": "Binding of CRJB (10 μg/ml) to looped/cyclic peptide (PEPSCAN-ELISA)", "setting": "[4]", "result": 110}, {"measurement": "Binding of CR57 (10 μg/ml) to looped/cyclic peptide (PEPSCAN-ELISA)", "setting": "[5]", "result": 134}, {"measurement": "Binding of CRJA (10 μg/ml) to looped/cyclic peptide (PEPSCAN-ELISA)", "setting": "[6]", "result": 107}]}
